Values of other authors in US20060111442A1, “Use of methyl pyruvate to increase cellular energy production downstream of glycolysis for the PARP-1 ablation of HIV without necrotic cell death caused by continuous, chronic PARP-1 activation through the concomitant depletion of ATP and NAD” (priority 2004, published 2006).
Read-outs that look alike come from different tables or passages of the source.

Tests used:
[1] = tested on: LXR
[2] = 30 mg/kg i.p. 30 min prior to rosiglitazone
[3] = tested on: human non-small cell lung carcinoma cell lines (H1838 and H2106)
[4] = tested on: human neuroblastoma cells (SK-N-SH and SK-N-MC); conditions: for 15-deoxy-PGJ2-induced cell growth inhibition: co-treatment
[5] = tested on: human mammary tumour cell lines
[6] = biological target: T1, PPARgamma (Homo sapiens, UniProt P37231); parameters: endogenous in cells; host or cells: human mammary tumour cell lines
T1 sequence (P37231 1-505): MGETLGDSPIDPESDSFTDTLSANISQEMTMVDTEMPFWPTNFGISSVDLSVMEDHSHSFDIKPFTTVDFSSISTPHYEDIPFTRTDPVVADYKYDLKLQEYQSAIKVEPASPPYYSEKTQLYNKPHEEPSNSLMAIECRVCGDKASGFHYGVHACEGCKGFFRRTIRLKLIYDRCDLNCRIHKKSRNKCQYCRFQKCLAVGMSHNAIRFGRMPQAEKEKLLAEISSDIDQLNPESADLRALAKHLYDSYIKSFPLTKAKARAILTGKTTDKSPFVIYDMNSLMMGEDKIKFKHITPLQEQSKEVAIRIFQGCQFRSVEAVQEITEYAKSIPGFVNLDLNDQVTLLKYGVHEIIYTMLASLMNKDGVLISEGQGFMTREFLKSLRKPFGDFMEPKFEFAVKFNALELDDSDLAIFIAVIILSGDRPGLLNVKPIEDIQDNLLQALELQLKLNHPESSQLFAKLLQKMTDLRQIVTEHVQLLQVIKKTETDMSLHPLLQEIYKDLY

[7] = tested on: hepatic stellate cells (HSC)
[8] = tested on: porcine carotid artery strips; conditions: for change in resting tone: 10 mM KCl
[9] = tested on: primary astrocyte cultures; conditions: for MPT and cell death: after PARP-1 activation, cyclosporin A sub-micromolar
[10] = tested on: human glioblastoma cell lines (A172, U87-MG, M059K, M059J); conditions: all cell lines
[11] = tested on: THP-1 monocytic cells; conditions: PMA-stimulated
[12] = tested on: Mouse neuron and astrocyte cultures; conditions: for NAD(+) depletion resulting from PARP1 activation: MNNG or H(2)O(2); for poly(ADP-ribose) accumulation: during MNNG exposure, immunostaining; for Cell death: hydrogen peroxide, NMDA or MNNG exposure
[13] = biological target: T1, PPARgamma; parameters: expressed in transfected cells
[14] = biological target: T2, PPARalpha (Homo sapiens, UniProt Q07869)
T2 construct: expressed in transfected cells
T2 sequence (Q07869 whole entry, species assumed): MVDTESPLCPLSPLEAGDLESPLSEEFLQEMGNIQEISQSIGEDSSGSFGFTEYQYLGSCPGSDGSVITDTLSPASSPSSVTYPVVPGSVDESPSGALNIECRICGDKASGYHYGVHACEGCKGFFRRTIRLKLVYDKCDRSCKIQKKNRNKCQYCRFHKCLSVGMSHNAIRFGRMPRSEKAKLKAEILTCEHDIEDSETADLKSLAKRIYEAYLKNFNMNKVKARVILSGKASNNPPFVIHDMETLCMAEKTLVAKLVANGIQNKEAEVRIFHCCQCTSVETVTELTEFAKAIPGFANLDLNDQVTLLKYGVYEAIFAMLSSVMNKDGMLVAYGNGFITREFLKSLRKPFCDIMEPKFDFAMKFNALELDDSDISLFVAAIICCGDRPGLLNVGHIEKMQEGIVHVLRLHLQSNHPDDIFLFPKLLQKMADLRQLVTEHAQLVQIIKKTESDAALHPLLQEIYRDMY

[15] = mouse, in vivo
[16] = not given; remark: listed apart in the source
[17] = tested on: pancreatic beta-cells
[18] = biological target: T3, K(ATP) channels (Homo sapiens, UniProt Q09428+Q14654); conditions: standard whole-cell configuration
T3 construct: endogenous in cells; host or cells: pancreatic beta-cells
T3 sequence (Q14654 whole entry): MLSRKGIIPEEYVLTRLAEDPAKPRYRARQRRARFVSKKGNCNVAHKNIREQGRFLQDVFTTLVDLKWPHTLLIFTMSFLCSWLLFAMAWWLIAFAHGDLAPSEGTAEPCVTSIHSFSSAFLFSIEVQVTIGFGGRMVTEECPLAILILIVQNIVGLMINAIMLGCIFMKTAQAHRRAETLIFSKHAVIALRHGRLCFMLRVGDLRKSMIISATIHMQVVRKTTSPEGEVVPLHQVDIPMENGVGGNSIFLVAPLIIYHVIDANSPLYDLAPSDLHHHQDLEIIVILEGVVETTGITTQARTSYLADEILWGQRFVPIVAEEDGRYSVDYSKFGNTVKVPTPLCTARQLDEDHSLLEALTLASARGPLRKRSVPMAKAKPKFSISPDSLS
T3 sequence (Q09428 whole entry): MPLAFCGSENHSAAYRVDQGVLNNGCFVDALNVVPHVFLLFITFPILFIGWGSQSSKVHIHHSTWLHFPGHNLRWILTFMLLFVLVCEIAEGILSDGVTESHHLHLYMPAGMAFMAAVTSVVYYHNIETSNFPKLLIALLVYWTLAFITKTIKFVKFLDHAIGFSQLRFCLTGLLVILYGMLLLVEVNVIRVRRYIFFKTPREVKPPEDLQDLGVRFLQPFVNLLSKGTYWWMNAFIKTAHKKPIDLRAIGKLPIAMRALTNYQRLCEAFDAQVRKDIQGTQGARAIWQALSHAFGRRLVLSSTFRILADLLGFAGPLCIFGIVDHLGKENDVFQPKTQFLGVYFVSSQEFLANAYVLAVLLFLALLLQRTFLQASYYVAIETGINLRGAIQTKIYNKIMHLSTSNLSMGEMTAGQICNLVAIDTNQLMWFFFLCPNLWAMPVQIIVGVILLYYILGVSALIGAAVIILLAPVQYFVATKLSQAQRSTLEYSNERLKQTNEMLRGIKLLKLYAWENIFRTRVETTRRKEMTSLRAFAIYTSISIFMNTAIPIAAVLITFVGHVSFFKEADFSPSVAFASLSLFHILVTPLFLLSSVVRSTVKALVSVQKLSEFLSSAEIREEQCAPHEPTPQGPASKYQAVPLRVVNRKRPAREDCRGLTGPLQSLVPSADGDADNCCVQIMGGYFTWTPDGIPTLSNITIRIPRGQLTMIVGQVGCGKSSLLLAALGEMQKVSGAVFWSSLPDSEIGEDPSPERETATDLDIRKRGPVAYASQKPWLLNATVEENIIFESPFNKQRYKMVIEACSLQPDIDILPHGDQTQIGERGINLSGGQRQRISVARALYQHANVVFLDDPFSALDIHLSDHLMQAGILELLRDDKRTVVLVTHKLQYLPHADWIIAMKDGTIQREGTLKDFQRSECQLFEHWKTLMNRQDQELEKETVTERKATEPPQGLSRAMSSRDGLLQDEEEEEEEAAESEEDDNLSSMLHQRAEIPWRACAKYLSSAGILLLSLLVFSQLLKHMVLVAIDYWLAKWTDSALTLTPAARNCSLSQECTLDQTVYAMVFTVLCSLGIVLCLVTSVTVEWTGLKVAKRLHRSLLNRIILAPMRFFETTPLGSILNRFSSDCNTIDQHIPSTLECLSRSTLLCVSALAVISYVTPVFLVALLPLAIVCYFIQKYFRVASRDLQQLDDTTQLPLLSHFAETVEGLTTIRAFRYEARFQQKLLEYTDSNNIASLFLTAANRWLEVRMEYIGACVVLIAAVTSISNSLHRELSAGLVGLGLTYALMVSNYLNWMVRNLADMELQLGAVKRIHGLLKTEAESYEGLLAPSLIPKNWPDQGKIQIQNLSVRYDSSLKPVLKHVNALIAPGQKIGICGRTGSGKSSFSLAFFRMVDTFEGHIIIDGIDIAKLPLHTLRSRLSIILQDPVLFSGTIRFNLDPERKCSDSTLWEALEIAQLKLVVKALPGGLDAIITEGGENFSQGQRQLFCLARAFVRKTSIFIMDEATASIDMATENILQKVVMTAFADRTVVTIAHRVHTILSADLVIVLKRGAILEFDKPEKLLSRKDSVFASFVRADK

[19] = tested on: isolated rat pancreatic islets
[20] = tested on: pancreatic islets
[21] = tested on: isolated beta-cell mitochondria; conditions: with glutamate, vs pyruvate/glutamate
[22] = tested on: Jurkat T-lymphocyte mitochondria
[23] = tested on: rat aortic vascular smooth muscle cell; conditions: 0.1-10 microM
[24] = tested on: human coronary VSMCs
[25] = tested on: porcine carotid arteries
[26] = human, in vivo

For `CC(C)CC[C@@H](O)[C@@H](C)[C@H]1CC[C@H]2[C@@H]3CC=C4C[C@@H](O)CC[C@]4(C)[C@H]3CC[C@]12C` [22(R)-hydroxycholesterol], the “suppressive effects of LXRs on PPARa-induced PPRE-luciferase activity” value [1] is listed as “dose dependently enhanced”.

For `CC(C)(c1ccc(OCC2CO2)cc1)c1ccc(OCC2CO2)cc1` (stereo not shown) [BADGE, bisphenol A diglycidyl ether], the “protective effect of rosiglitazone or 15d-PGJ2 against gut I/R” value (1 mg kg-1 i.v. 30 min prior to agonist) is given as “abolished the protective effect” and the “anti-inflammatory effects of rosiglitazone” value [2] is given as “abolished the anti-inflammatory effects”.

For `CCCC1([C@H](O)C/C=C/[C@H]2[C@H](O)CC(=O)[C@@H]2CCCCCCC(=O)OC)CCC1` [Butaprost], the cell growth [3] is given as “increased lung carcinoma cell growth”.

For `CN(CCOc1ccc(C[C@H](Nc2ccccc2C(=O)c2ccccc2)C(=O)O)cc1)c1ccccn1` [GW1929], the “EP2 mRNA and protein levels” value [3] is given as “significant decrease” and the cell growth [3] is given as “inhibition of cell growth”.

In the case of `O=C(Nc1ccccc1)c1cc([N+](=O)[O-])ccc1Cl` [GW9662, 2-chloro-5-nitro-N-henylbenzamide], the “15-deoxy-PGJ2-induced cell growth inhibition” value [4] is listed as “reversed”, the “growth of tumour cell lines” value [5] is listed as “inhibited growth” and the rosiglitazone-induced growth inhibition ([5]; combination with rosiglitazone) is listed as “enhanced rather than reversed”. For the same compound, the “activation of PPARgamma” value [6] was “prevented activation of PPARgamma” and the “abrogation of suppression of HSC collagen by 15dPGJ(2)” value ([7]; concomitant treatment) was 70%.

For `[Cl-].[K+]` [KCl], the “change in resting tone” value ([8]; glucose-PSS) is given as -0.8 ± 0.8 g, the “change in resting tone” value ([8]; lactate-PSS) is given as 1.5 ± 0.7 g and the “change in resting tone” value ([8]; pyruvate-PSS) is given as -2.1 ± 0.8 g.

For `NC(=O)c1ccc[n+]([C@@H]2O[C@H](COP(=O)([O-])OP(=O)(O)OC[C@H]3O[C@@H](n4cnc5c(N)ncnc54)[C@H](O)[C@@H]3O)[C@@H](O)[C@H]2O)c1` [NAD(+)], the “translocation of the apoptosis-inducing factor from mitochondria to nuclei” value [9] is given as “blocked translocation”, the “glycolytic capacity and cell death” value ([9]; 10 mM extracellular NAD(+) after MNNG exposure) is given as “completely restored glycolytic capacity and prevented cell death” and the “MPT and cell death” value [9] is given as “blocked both MPT and cell death”.

For `COc1cccc(-c2cc(=O)c3ccccc3o2)c1N` [PD98059, 2′-amino-3′-methoxyflavone], the “15-deoxy-PGJ2-induced cell growth inhibition” value [4] is listed as “significantly prevented”.

For `CCCCC/C=C/C=C1/C(=O)C=C[C@@H]1C/C=C\CCCC(=O)O` [PGJ2, 15-deoxy-Delta12,14-prostaglandin J2], the proliferation [10] is given as “inhibited proliferation”, the induction of apoptosis [4] is given as “increased the induction of apoptosis in a dose-dependent manner” and the cell growth ([4]; both cells) is given as “inhibited cell growth in time- and dose-dependent manners”. The “nitrotyrosine formation and ICAM-1 upregulation during reperfusion” value (0.3 mg kg-1 i.v.) was “markedly reduced”, the “fall in mean arterial blood pressure, mortality rate, MPO activity, MDA levels, TNF-alpha and IL-1 beta, histological gut injury” value (0.3 mg kg-1 i.v. 30 min prior to ischaemia) was “significantly reduced” and the “IL-1, IL-6 and TNFalpha secretion” value [11] was “inhibitory effect”. For the same compound, the IL-1Ra production [11] was “increasing IL-1Ra production”, the “EP2 mRNA and protein levels” value [3] was “significant decrease” and the cell growth [3] was “inhibition of cell growth”. The “alpha1 (I) procollagen promoter activity” value [7] was “inhibited” and the “HSC DNA and collagen synthesis” value ([7]; 10 microm 15dPGJ(2), 0.1 approximately 10 microm BRL49653, WY14643 >100 microm, not <10 microm) was “inhibited DNA and collagen synthesis without affecting the cell viability”.

In the case of `O=S(=O)(c1ccccc1)N(CC(F)(F)F)c1ccc(C(O)(C(F)(F)F)C(F)(F)F)cc1` [T0901317], the “suppressive effects of LXRs on PPARa-induced PPRE-luciferase activity” value [1] is given as “dose dependently enhanced”.

In the case of `NC(=O)c1ccccc1` [benzamide], the “NAD(+) depletion resulting from PARP1 activation” value [12] is listed as “prevented the NAD(+) depletion”, the “poly(ADP-ribose) accumulation” value [12] is listed as “decrease” and the Cell death [12] is listed as “markedly reduced”.

For `O=C(OC[C@H]1O[C@@H](OC(=O)c2cc(O)c(O)c(OC(=O)c3cc(O)c(O)c(O)c3)c2)[C@H](OC(=O)c2cc(O)c(O)c(OC(=O)c3cc(O)c(O)c(O)c3)c2)[C@@H](OC(=O)c2cc(O)c(O)c(OC(=O)c3cc(O)c(O)c(O)c3)c2)[C@@H]1OC(=O)c1cc(O)c(O)c(OC(=O)c2cc(O)c(O)c(O)c2)c1)c1cc(O)c(O)c(OC(=O)c2cc(O)c(O)c(O)c2)c1` [gallotannin], the “NAD(+) depletion resulting from PARP1 activation” value [12] is listed as “prevented the NAD(+) depletion”, the “poly(ADP-ribose) accumulation” value [12] is listed as “increase” and the Cell death [12] is listed as “equally reduced”.

For `CC(C)=CCC(=O)C1(O)C(O)=C(C(=O)C(C)C)C(=O)C1CC=C(C)C` (stereo not shown) [isocohumulone], the “activation of PPARgamma” value [13] is listed as “activate” and the “activation of PPARalpha” value [14] is listed as “activate”.

In the case of `CC(C)=CCC(=O)C1(O)C(O)=C(C(=O)CC(C)C)C(=O)C1CC=C(C)C` (stereo not shown) [isohumulone], the “body weight increase versus control group” value [15] is listed as “did not result in significant body weight gain”, the “reduced plasma free fatty acid level” value [15] is listed as 73.1% and the “reduced plasma glucose level” value [15] is listed as 65.3%. For the same compound, the “reduced plasma triglyceride level” value [15] was 62.6%, the “activation of PPARgamma” value [13] was “activate” and the “activation of PPARalpha” value [14] was “activate”.

For `CC(O)C(=O)O` (stereo not shown) [lactate], the “increase of O2 consumption” value ([8]; 10 mm in PSS) is given as “without effect”.

In the case of `CN(C)C(=N)N=C(N)N` [metformin], the “HbA1c, insulin, and free fatty acid concentrations” value ([16]; 8 mg rosiglitazone or 2 g metformin, 16 weeks) is listed as “similarly decreased”, the “Body weight at 16 weeks” value ([16]; 2 g metformin, baseline 84+/−4, P<0.05) is listed as 82 ± 4 kg and the “Serum adiponectin concentrations, increase” value ([16]; 16 weeks) is listed as “remained unchanged”. For the same compound, the “Liver fat (proton spectroscopy) at 16 weeks” value ([16]; baseline 15+/−3 rosiglitazone, 13+/−3 metformin) was 14+/−3%.

For `COC(=O)C(C)=O` [methyl pyruvate], the “NAD(P)H autofluorescence, ATP production, ATP/ADP ratio” value [17] is given as “slightly decreased NAD(P)H autofluorescence and did not influence ATP production or the ATP/ADP ratio”, the “cytosolic free Ca(2+) concentration” value [17] is given as “increased the cytosolic free Ca(2+) concentration after an initial decrease” and the “increase in insulin secretion relative to that induced by glucose” value [17] is given as 6 fold. The electrical activity ([17]; 0.5 mM glucose) was “elicited electrical activity”, the beta-cell membrane depolarization ([17]; 5-20 mM) was “depolarized the beta-cell in a concentration-dependent manner” and the “concentration of maximal effect on insulin secretion” value ([17]; absence of glucose) was 5 mM. For the same compound, the insulin secretion ([17]; absence of glucose, pyruvate 5-20 mM) was “stimulated insulin secretion”, the “insulin secretion and KATP block” value ([17]; islets) was “block of KATP” and the “ATP/ADP ratio in whole islets” value ([17]; pyruvate 5 mM, MP 5 mM, glucose 20 mM) was “no effect”. For the same compound, the “K(ATP) current” value [18] was “inhibited the K(ATP) current”, the mitochondrial alkalinization [19] was “more marked mitochondrial alkalinization than pyruvate” and the “mitochondrial metabolism compared with pyruvate” value [19] was “more efficient than pyruvate”. For the same compound, the insulin release ([19]; D-glucose 16.7 mM and/or ester 20.0 mM) was “negative insulinotropic action”, the insulin release ([19]; D-glucose 2.8 to 8.3 mM, ester not exceeding 1 0.0 mM) was “positive insulinotropic action” and the “NADH and NADPH response” value [20] was “stimulated a robust NADH and NADPH response”. The ATP production [21] was “higher” and the “cation current across the inner membrane” value [22] was “directly inhibited”.

In the case of `O=C(O)c1c(Sc2ccccc2)c2cc(Cl)ccc2n1Cc1ccc(Cl)cc1` [nTZDpa], the “vascular smooth muscle cell growth” value [23] is given as “inhibited vascular smooth muscle cell growth” and the apoptosis [24] is given as “induce caspase-mediated apoptosis”.

In the case of `CCCCCCCC(=O)O` [octanoate], the “adverse energetic effects of malate-aspartate shuttle inhibition” value [25] is listed as “normalized”.

In the case of `CN(CCOc1ccc(CC2SC(=O)NC2=O)cc1)c1ccccn1` (stereo not shown) [rosiglitazone], the “blood counts, viral loads, CD4 counts” value [26] is listed as “no significant changes”.

In the case of cyclosporin A, the “translocation of the apoptosis-inducing factor from mitochondria to nuclei” value [9] is listed as “blocked translocation” and the “MPT and cell death” value [9] is listed as “blocked MPT and cell death”.

In the case of nobotanin B, the Cell death [12] is given as “equally reduced”.
